From paper PMC11144398, “Crizotinib inhibits the metabolism of tramadol by non-competitive suppressing the activities of CYP2D1 and CYP3A2” (PeerJ, 2024)

What was measured:
[1] = tested on: opioid receptors; parameters: method as in earlier work; conditions: ref Allegaert et al., 2015, De La Gastine et al., 2022, Gillen et al., 2000, Gong et al., 2014; cited from earlier work
[2] = Pharmacokinetics of tramadol and O-desmethyl tramadol in SD rats with or without crizotinib; conditions: male, Sprague-Dawley, rat, serum, po, 20 mg/kg; for CL/F: CLz/F; for Vd/F: Vz/F; for half-life: t1/2z
Source text: Ultra-performance liquid chromatography-tandem mass spectrometry (UPLC-MS/MS) was utilized to measure the concentration of both tramadol and O-desmethyl tramadol. Separation was achieved using a Waters Acquity UPLC BEH C18 column, with dimensions of 2.1 mm × 50 mm and 1.7-µm particle size (Waters Corp., Milford, MA, USA), and quantitation was completed using a Waters XEVO TQD triple quadruple mass spectrometer. The mobile phase was composed of 0.1% formic acid (A) and ACN (B), and the gradient elution was carried out with a flow rate of 0.4 mL/min, following the procedure: 90–10% A (0–1.4 min), 10–90% A (1.4–1.5 min), and 90% A (1.5–2.0 min). Positive mode was used to detect the analytes with the following transitions: m/z 264.2 →58.0, m/z 250.2 →58.2, and m/z 285.0 →154.0 for tramadol, O-desmethyl tramadol, and diazepam (used as an internal standard, IS), respectively. The collision energy was 20 V for tramadol and O-desmethyl tramadol, and 25 V for diazepam. The standard for tramadol and O-desmethyl tramadol were dissolved in a small amount of DMSO (the concentration was 1 mg/mL) then diluted with acetonitrile (the final concentration was 1 ng/mL–1,000 ng/mL). Diazepam was diluted with methanol gradually to 500 ng/mL).
SD male rats (280 ± 15 g) were purchased from the Shanghai Animal Experimental Center. Before the experiment, the rats were kept in the animal room for two weeks with adequate water and food in order to adapt to the new environment. The room temperature was kept at 20–25 °C and the humidity was kept at 50%–65%. The change period of light and dark conditions was 12 h, which simulates the change of day and night. All animal experiments were approved by the Ethics Committee of Wenzhou Medical University (Approval number: xmsq2022-0621).
Generally speaking, only when at least five or more animals are involved in the experiment can the results be convincing. Thus, twenty SD rats were randomly divided into four groups with five animals per group: group A received a single dose of 20 mg/kg of tramadol; group B received a single dose of 45 mg/kg of crizotinib and 20 mg/kg of tramadol; group C received multiple doses of 0.5% carboxymethylcellulose sodium salt (CMC-Na) for 7 days and a single dose of 20 mg/kg of tramadol; and group D received multiple doses of 45 mg/kg of crizotinib for 7 days and a single dose of 20 mg/kg of tramadol. Prior to the experiment, all rats were fasted for 12 h but allowed free access to water. Once the experiment began, 0.5% CMC-Na and crizotinib were administered to groups C and D for 7 days, respectively, then to groups A and B on the last day of the experiment. After 30 min, all rats were orally administered 20 mg/kg of tramadol. Blood samples were collected from the tail vein at 5 min, 15 min, 30 min, 1 h, 2 h, 3 h, 4 h, 6 h, 8 h, 10 h, 12 h, and 24 h following tramadol administration. […] The samples were centrifuged at 2400 × g for 10 min to obtain serum. Each 50 µL serum was mixed with 150 µL ACN and 20 µL IS (500 ng/mL). After vortexing for 2 min and centrifugation at 16200 × g for 10 min at 4 °C, the supernatant was obtained, then we used UPLC-MS/MS analysis to detect the concentration of tramadol and O-desmethyl tramadol. After the experiment, all the animals were euthanized by 5% isoflurane inhalation anesthesia.
The Michaelis–Menten, IC50, and Lineweaver-Burk plots were generated using GraphPad Prism 6.0 software (GraphPad Software, Boston, MA, USA) with corresponding values for Km, IC50, and Ki (inhibition constant).

[3] = tested on: tramadol metabolism (O-desmethyl tramadol production) in rat liver microsomes; experiment: Liver microsomal incubation assay: inhibition of tramadol metabolism (O-desmethyl tramadol production) in RLM; format: in vitro ADME; conditions: rat, pH 7.4, inhibitory rate on tramadol metabolism (production of O-desmethyl tramadol)
Experimental: All the substance meet the requirements for analysis.
To obtain the Michaelis kinetic parameters of tramadol in RLM and HLM, a 200 µL incubation system was established containing 2 µL RLM or HLM (0.2 mg/mL), 186 µL 1xPBS buffer (pH = 7.4), 2 µL tramadol (10–500 µM), and 10 µL NADPH (1 mM). The mixture was pre-incubated for 5 min without NADPH in a water bath shaking at 37 °C. Then, NADPH was added to initiate the reaction, and the mixture was incubated for another 30 min. The reaction was terminated by adding 400 µL of cold ACN and 20 µL of IS (500 ng/mL).
For drug-interaction screening, 100 µM of each drug (1.6 µL) was added to the system, and added PBS to the final volume of 200 uL. Tramadol concentration was set at 60 µM according to the Km.
To determine the half-maximal inhibitory concentration (IC50), the concentration of crizotinib was set at 0.01, 0.1, 1, 10, 25, 50, and 100 µM, while the concentration of tramadol was constant at 60 µM in RLM or 100 µM in HLM (according to Km).
All data were presented as mean ± SD (standard deviation).

[4] = Group A: single oral 20 mg/kg tramadol alone
[5] = Group B: 20 mg/kg tramadol with crizotinib 45 mg/kg single dose
[6] = Group C: 0.5% CMC-Na for 7 days, then single 20 mg/kg tramadol
[7] = Group D: crizotinib 45 mg/kg for 7 days, then single 20 mg/kg tramadol

## CN(C)C[C@H]1CCCC[C@]1(O)c1cccc(O)c1 [O-desmethyl tramadol]
[1]
  affinity relative to tramadol: more than 700 times
[2]; [4]
  AUC(0-t): 934 ± 101 ng·h/mL
  AUC(0-inf): 937 ± 101 ng·h/mL
  CL/F: 360 mL/min/kg
  Cmax: 229 ± 56.1 ng/mL
  Tmax: 0.8 ± 0.27 h
  Vd/F: 91.3 ± 12 L/kg
  half-life: 2.93 ± 0.09 h
[2]; [5]
  AUC(0-t): 928 ± 145 ng·h/mL
  AUC(0-inf): 981 ± 125 ng·h/mL
  CL/F: 344 mL/min/kg
  Cmax: 172 ± 72.1 ng/mL
  Tmax: 0.7 ± 0.27 h
  Vd/F: 170 ± 112 L/kg
  half-life: 5.68 ± 3.69 h
[2]; [6]
  AUC(0-t): 1170 ng·h/mL
  AUC(0-inf): 1180 ng·h/mL
  CL/F: 288 mL/min/kg
  Cmax: 292 ± 55.1 ng/mL
  Tmax: 1.2 ± 0.45 h
  Vd/F: 72.5 ± 25.4 L/kg
  half-life: 2.86 ± 0.71 h
[2]; [7]
  AUC(0-t): 1230 ng·h/mL
  AUC(0-inf): 1250 ng·h/mL
  CL/F: 268 mL/min/kg
  Cmax: 182 ± 65.8 ng/mL
  Tmax: 0.9 ± 0.65 h
  Vd/F: 94.7 ± 26.4 L/kg
  half-life: 4.06 ± 0.91 h

## COc1cccc(C2(O)CCCCC2CN(C)C)c1 (centres unmarked) [Tramadol, tramadol]
[2]; [4]
  AUC(0-t): 770 ± 169 ng·h/mL
  AUC(0-inf): 786 ± 165 ng·h/mL
  CL/F: 440 mL/min/kg
  Cmax: 202 ± 82.7 ng/mL
  Tmax: 0.5 h
  Vd/F: 168 ± 88.2 L/kg
  half-life: 4.22 ± 1.68 h
[2]; [5]
  AUC(0-t): 1120 ng·h/mL
  AUC(0-inf): 1220 ng·h/mL
  CL/F: 298 mL/min/kg
  Cmax: 245 ± 38.3 ng/mL
  Tmax: 0.6 ± 0.22 h
  Vd/F: 154 ± 96.5 L/kg
  half-life: 6.91 ± 5.73 h
[2]; [6]
  AUC(0-t): 777 ± 233 ng·h/mL
  AUC(0-inf): 790 ± 226 ng·h/mL
  CL/F: 459 mL/min/kg
  Cmax: 246 ± 57.6 ng/mL
  Tmax: 1.6 ± 0.55 h
  Vd/F: 307 ± 309 L/kg
  half-life: 6.69 ± 5.14 h
[2]; [7]
  AUC(0-t): 1650 ng·h/mL
  AUC(0-inf): 1650 ng·h/mL
  CL/F: 214 mL/min/kg
  Cmax: 294 ± 85.2 ng/mL
  Tmax: 0.9 ± 0.65 h
  Vd/F: 51.4 ± 19.1 L/kg
  half-life: 2.74 ± 0.56 h

## CNC(=O)c1cc(Oc2ccc(NC(=O)Nc3ccc(Cl)c(C(F)(F)F)c3)c(F)c2)ccn1 [regorafenib]
[3]
  inhibition at 30 min, 100 µM: 83.7%

## CNC(=O)c1cc(Oc2ccc(NC(=O)Nc3ccc(Cl)c(C(F)(F)F)c3)cc2)ccn1 [sorafenib]
[3]
  inhibition at 30 min, 100 µM: 96.7%
